Laboratory results from paper PMC12495443, “Developing inhibitors of the guanosine triphosphate hydrolysis accelerating activity of Regulator of G protein Signaling-14 [drawing 1]” (The Journal of Biological Chemistry, 2025).
Read-outs that look alike come from different tables or passages of the source.

Experiments:
[1] = molecular target: T1, human RGS14 RGS-box (wild-type) (Homo sapiens, UniProt O43566); assay: Transcreener GDP RGScreen fluorescence polarization assay of RGS14 RGS-box GAP activity on Gαi1(DM); format: biochemical; settings: for Ratio (RGS14 pIC50 / RGS12 pIC50): values > 1.0 reflect RGS14 selectivity
T1 construct: human RGS14 RGS-box (aa 46–195 of UniProt O43566); host or cells: E. coli
T1 sequence (O43566 46-195): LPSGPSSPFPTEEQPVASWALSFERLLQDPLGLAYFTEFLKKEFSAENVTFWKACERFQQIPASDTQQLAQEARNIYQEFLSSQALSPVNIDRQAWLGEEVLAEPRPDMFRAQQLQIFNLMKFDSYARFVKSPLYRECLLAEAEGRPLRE
Source text: (§1) We previously described work with BellBrook Labs creating the Transcreener GDP RGScreen fluorescence polarization assay of steady-state GTP hydrolysis, leveraging a double point-mutant in the Gα enzyme to make GTP hydrolysis, rather than GDP (product) release, the rate-limiting step for multiple rounds of GTP conversion ([57], [59]). […] Titrating inputs of the double point-mutant (“DM”) Gαi1 and RGS-box recombinant proteins (Fig. S2, B and C) established a robust, medium-throughput assay for evaluating potential RGS14 and RGS12 inhibitors, with “assay quality” Z′ scores ([60]) above 0.76 for each target (Fig. S2D).
(§2) Reagents and protocols for the fluorescence anisotropy-based Transcreener GDP RGScreen assay using a rate-altered, double point-mutant, recombinant Gαi1 protein have been extensively described previously ([43], [44]); reactions were always performed so that total GTP converted over the time course was consistently less than 10% of reaction maximum input. Specific methods for its application in assessing RGS14 and RGS12 GAP activity are summarized as follows. Open-reading frames (ORFs) encoding wild-type versions of the human RGS14 RGS-box (aa 46–195 of UniProt O43566) and human RGS12 RGS-box (aa 695–843 of UniProt O14924) were each sub-cloned in-frame with an N-terminal hexahistidine (His6) expression tag in the plasmid pET30a, expressed in E. coli cultures, and then purified by nickel-nitriloacetate (Ni-NTA) and size-exclusion (Superdex 200) column chromatographies by GenScript using previously described methods ([35]). These recombinant His6-tag fusion proteins were stored at −80 °C in storage buffer (150 mM NaCl, 50 mM Tris-HCl pH 8.0, 10% glycerol) before thawing and use. Cysteine-less versions were similarly produced by ORF site-directed mutagenesis: for RGS14, codons for cysteine residues 47 and 130 (numbered as in PDB id 2JNU) were replaced with serine codons; for RGS12, codons for cysteines 4, 51, 78, and 134 (numbered in relation to PDB id 2EBZ) were replaced with serine codons. Use of Transcreener GDP-detection reagents to assess compound inhibition of Naegleria fowleri Gα7 protein GTPase activity ([83]) has previously been described ([84]).

[2] = molecular target: T2, human RGS12 RGS-box (wild-type) (Homo sapiens, UniProt O14924); assay: Transcreener GDP RGScreen fluorescence polarization assay of RGS12 RGS-box GAP activity on Gαi1(DM); format: biochemical; settings: for IC50 / RGS12 pIC50: wild-type RGS12 RGS-box GAP activity, Gαi1(DM); for IC50: read-out: RGS12 pIC50 (converted)
T2 construct: human RGS12 RGS-box (aa 695–843 of UniProt O14924); host or cells: E. coli
T2 sequence (O14924 695-843): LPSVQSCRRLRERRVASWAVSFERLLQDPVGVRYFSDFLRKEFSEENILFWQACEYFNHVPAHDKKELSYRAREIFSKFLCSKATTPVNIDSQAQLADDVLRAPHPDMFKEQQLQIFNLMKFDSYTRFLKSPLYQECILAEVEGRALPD
Source text: as §1, §2

[3] = wild-type RGS14 RGS-box GAP activity, Gαi1(DM), Transcreener GDP RGScreen, read-out: RGS14 pIC50 (converted)
[4] = wild-type RGS14 RGS-box GAP activity, Gαi1(DM), Transcreener GDP RGScreen

Row | Compound | Ratio (RGS14 pIC50 / RGS12 pIC50) [1] | IC50 [1, 3] [µM] | IC50 [2] [µM] | further results
1 | O=C(O)C[C@@H]1Sc2nnc(-c3ccco3)n2N=C1c1ccc(F)cc1 [Z90276391] | 0.96 | 93.3 | 61.7 | –
2 | COC(=O)C1Sc2nnc(COc3ccc(F)cc3)n2N=C1c1cc2ccccc2o1 (stereo not shown) [Z8201263931] | 0.91 | 100 | 40.7 | –
3 | O=C(O)CC1Sc2nnc(C3COc4ccccc4O3)n2N=C1c1cccs1 (stereo not shown) [Z90275816] | 1.08 | 20.4 | 44.7 | –
4 | O=C(O)CC1Sc2nnc(C3CC3)n2N=C1c1ccc(F)cc1 (stereo not shown) [Z90274599] | 0.92 | 91.2 | 41.7 | –
5 | O=C(O)CC1Sc2nnc(Cc3ccc(Br)cc3)n2N=C1c1ccc(Cl)cc1 (stereo not shown) [Z90276771] | 0.91 | – | – | RGS14 pIC50 [1, 4]: 4.53; RGS12 pIC50 [2]: 4.96
6 | COc1ccc(Cc2nnc3n2N=C(c2ccc(C)c(C)c2)[C@@H](C)S3)cc1OC [Z55660805] | 0.91 | 75.9 | 29.5 | –
7 | CC1Sc2nnc(Cc3ccc(Br)cc3)n2N=C1c1ccc(Cl)cc1 (stereo not shown) [Z55660592] | 0.93 | 21.4 | 10 | –
8 | COc1ccc(Cc2nnc3n2N=C(c2ccccc2)C(C)S3)cc1OC (stereo not shown) [Z55660788] | 0.90 | – | – | RGS14 pIC50 [1, 4]: 4.03; RGS12 pIC50 [2]: 4.50
9 | COc1ccc(OCc2nnc3n2N=C(c2ccc(NC(C)=O)cc2)CS3)cc1 [Z55660046] | – | > 1000 | 155 | –
10 | C[C@H]1Sc2nnc(Cc3ccc(Br)cc3)n2N=C1c1ccc(NS(C)(=O)=O)cc1 [Z90276813] | 0.85 | 72.4 | 13.5 | –
11 | COc1ccc(OCc2nnc3n2N=C(c2cc(C)n(-c4nccs4)c2C)CS3)cc1 [Z667824954] | 0.87 | 219 | 64.6 | –
12 | O=C(O)C[C@@H]1Sc2nnc(-c3ccco3)n2N=C1c1ccccc1 [Z90276389] | 1.00 | 79.4 | 83.2 | –
13 | O=C(O)CC1Sc2nnc(C3CC3)n2N=C1c1ccccc1 (stereo not shown) [Z90274597] | 0.92 | 302 | 151 | –
14 | CC(Sc1n[nH]c2nc3ccccc3n12)C(=O)c1c(F)cc(F)cc1F (stereo not shown) [Z1098346193, 2-(2,4,5,7-tetraaza-tricyclo[6.4.0.0²,⁶]dodeca-1(12),3,5,8,10-pentaen-3-ylsulfanyl)-1-(2,4,6-trifluorophenyl)propan-1-one] | – | ~200 | 63.1 | –
15 | O=C(O)C[C@@H]1Sc2nnc(COc3ccc(Cl)cc3)n2N=C1c1ccccc1 [Z90276197, 2-{3-[(4-chlorophenoxy)methyl]-6-phenyl-5H-[1,2,4]triazolo[3,4-b][1,3,4]thiadiazin-7-yl}acetic acid] | 0.94 | – | 42.7 | IC50 ([1]; wild-type RGS14 RGS-box, Transcreener GDP RGScreen, read-out: IC50 against RGS14 RGS-box GAP activity): 81 µM
16 | COc1cccc(C2=Nn3c(COc4ccc(Cl)cc4)nnc3SC2)c1 [Z55660496] | 0.85 | 191 | 42.7 | –
17 | COC(=O)C1Sc2nnc(COc3ccc(OC)cc3)n2N=C1c1cccc(N2CCCC2=O)c1 (stereo not shown) [Z7976707565] | 1.14 | 27.5 | 100 | –
18 | Fc1ccccc1OCc1nnc2n1N=C(c1ccc(Cl)cc1)CS2 [Z55660438] | 0.77 | 234 | 20.4 | –
19 | CCCc1ccc(C2=Nn3c(COc4ccccc4F)nnc3SC2)cc1 [Z55660462] | 0.96 | 16.6 | 10.5 | –

Row | Compound | Ratio (RGS14 pIC50 / RGS12 pIC50) [1] | IC50 [1, 3] [µM] | IC50 [2] [µM] | further results
20 | Cc1ccc(C2=Nn3c(COc4ccc(Cl)cc4)nnc3SC2)c(C)c1 [Z55660524] | 0.82 | 170 | 26.9 | –
21 | COc1ccc(OCc2nnc3n2N=C(c2ccc(C)cc2)[C@@H](C)S3)cc1 [Z55660052] | 0.86 | 20.4 | 3.63 | –
22 | COc1ccc(-c2nnc3n2N=C(c2ccc(NC(C)=O)cc2)[C@@H](C)S3)cc1OC [Z90277200] | 0.96 | 30.2 | 18.6 | –
23 | O=c1[nH]c(-c2ccc(C(F)(F)F)cc2)nn1-c1cc(Cl)ccc1O [BMS-192364, reference compound] | – | – | – | inhibition of RGS14 RGS-box GAP activity (in words) ([1]; Transcreener GDP RGScreen): inactive; inhibition of RGS12 RGS-box GAP activity (in words) [2]: inactive
24 | c1ccc2c(c1)OC[C@@H](c1nnc3n1N=C(c1ccc4c(c1)OCCO4)CS3)O2 [Z55660304] | 0.90 | 28.8 | 8.71 | –
25 | CSc1nnc2n1N=C(c1ccc(NC(=O)C(C)C)cc1)[C@H](C)S2 [Z90277842] | 0.94 | 107 | 61.7 | –
26 | O=C(O)C[C@@H]1Sc2nnc(CCC3CCCCC3)n2N=C1c1ccccc1 [Z90277285] | 0.96 | 38 | 24 | –
27 | CC(C)(C)c1ccc(C2=Nn3c(nnc3-c3ccco3)SC2)cc1 [Z55660110] | – | 56.2 | 53.7 | –
28 | COc1ccc(-n2c(SC(C)C(=O)c3cc(C)c(C)cc3C)nc3ccccc32)cc1 (stereo not shown) [Z19576531] | – | > 1000 | – | –
29 | COc1ccc2nc(SC(C)C(=O)c3ccc4c(c3)CCC4)[nH]c2c1 (stereo not shown) [Z16076970] | – | > 1000 | – | –
30 | CCCCn1c(SC(C(=O)c2ccc(OC)cc2)c2ccc(OC)cc2)nc2cc(S(N)(=O)=O)ccc21 (stereo not shown) [Z19162246] | – | > 1000 | – | –
31 | CCC(Sc1nc2ccc(OC)cc2[nH]1)C(=O)c1ccccc1 (stereo not shown) [Z447938100] | – | > 1000 | – | –
32 | COc1ccc(C(=O)C(Sc2nc3ccccc3n2C)c2ccc(OC)cc2)cc1 (stereo not shown) [Z15478257] | – | > 1000 | – | –
33 | CCn1c(SC(C)C(=O)c2cccc(Cl)c2)nc2cc(S(N)(=O)=O)ccc21 (stereo not shown) [Z51418566] | – | > 1000 | – | –
34 | COc1ccc2nc(SC(C)C(=O)c3ccc(NC(=O)C(C)(C)C)cc3)[nH]c2c1 (stereo not shown) [Z50965385] | – | > 1000 | – | –
35 | CCOc1ccc2[nH]c(SCCC(=O)c3ccc(F)cc3)nc2c1 [Z19828508] | – | > 1000 | – | –
36 | CCCC(=O)Nc1ccc(C(=O)C(C)Sc2nc3ccc(OC)cc3[nH]2)cc1 (stereo not shown) [Z50965416] | – | > 1000 | – | –
37 | Cc1ccc2[nH]c(SC(C)C(=O)c3ccc(F)cc3F)nc2c1 (stereo not shown) [Z167804418] | – | > 1000 | – | –
38 | Cc1ccc2[nH]c(SC(C)C(=O)c3cccc(F)c3)nc2c1 (stereo not shown) [Z5032180743] | – | > 1000 | – | –
